Key:
[1] = test system: CD8+ T cells of healthy HLA-A*02+ donors; assay: In vitro T-cell priming assay with artificial antigen presenting cells loaded with peptide/HLA-A*02 complexes and anti-CD28, multimer readout; type: cell-based, human; conditions: HLA-A*02 peptides; peptide-specific multimer+ CD8+ T cells after in vitro priming; Table 19B
Source text: FIGS. 4A to 4D show exemplary results of peptide-specific in vitro CD8+ T cell responses of a healthy HLA-A*02+ donor. CD8+ T cells were primed using artificial APCs coated with anti-CD28 mAb and HLA-A*02 in complex with SeqID No 27 peptide (FIG. 4A, left panel), SeqID No 229 peptide (FIG. 4B, left panel), SeqID No 230 peptide (FIG. 4C, left panel) and SeqID No 235 peptide (FIG. 4D, left panel), respectively. After three cycles of stimulation, the detection of peptide-reactive cells was performed by 2D multimer staining with A*02/SeqID No 27 (FIG. 4A), A*02/SeqlD No 229 (FIG. 4B), A*02/SeqlD No 230 (FIG. 4C) or A*02/SeqlD No 235 (FIG. 4D). Right panels (FIGS. 4A, 4B, 4C and 4D) show control staining of cells stimulated with irrelevant A*02/peptide complexes. Viable singlet cells were gated for CD8+ lymphocytes. Boolean gates helped excluding false-positive events detected with multimers specific for different peptides. Frequencies of specific multimer+ cells among CD8+ lymphocytes are indicated.
In order to obtain information regarding the immunogenicity of the TUMAPs of the present invention, the inventors performed investigations using an in vitro T-cell priming assay based on repeated stimulations of CD8+ T cells with artificial antigen presenting cells (aAPCs) loaded with peptide/MHC complexes and anti-CD28 antibody.
In order to perform in vitro stimulations by artificial antigen presenting cells loaded with peptide-MHC complex (pMHC) and anti-CD28 antibody, the inventors first isolated CD8+ T cells from fresh HLA-A*02 leukapheresis products via positive selection using CD8 microbeads (Miltenyi Biotec, Bergisch-Gladbach, Germany) of healthy donors obtained from the University clinics Mannheim, Germany, after informed consent.
PBMCs and isolated CD8+ lymphocytes were incubated in T-cell medium (TCM) until use consisting of RPMI-Glutamax (Invitrogen, Karisruhe, Germany) supplemented with 10% heat inactivated human AB serum (PAN-Biotech, Aidenbach, Germany), 100 U/ml Penicillin/100 μg/ml Streptomycin (Cambrex, Cologne, Germany), 1 mM sodium pyruvate (CC Pro, Oberdorla, Germany), 20 μg/ml Gentamycin (Cambrex). 2.5 ng/ml IL-7 (PromoCell, Heidelberg, Germany) and 10 U/ml IL-2 (Novartis Pharma, Nürnberg, Germany) were also added to the TCM at this step.
Generation of pMHC/anti-CD28 coated beads, T-cell stimulations and readout was performed in a highly defined in vitro system using four different pMHC molecules per stimulation condition and 8 different pMHC molecules per readout condition.
The purified co-stimulatory mouse IgG2a anti human CD28 Ab 9.3 (Jung et al., 1987) was chemically biotinylated using Sulfo-N-hydroxysuccinimidobiotin as recommended by the manufacturer (Perbio, Bonn, Germany). Beads used were 5.6 μm diameter streptavidin coated polystyrene particles (Bangs Laboratories, Illinois, USA).
pMHC used for positive and negative control stimulations were A*0201/MLA-001 (peptide […] (SEQ ID NO. 303) from modified Melan-A/MART-1) and A*0201/DDX5-001 ([…] from DDX5, SEQ ID NO. 304), respectively.
800.000 beads/200 μl were coated in 96-well plates in the presence of 4×12.5 ng different biotin-pMHC, washed and 600 ng biotin anti-CD28 were added subsequently in a volume of 200 μl. Stimulations were initiated in 96-well plates by co-incubating 1×10^6 CD8+ T cells with […] washed coated beads in 200 μl TCM supplemented with 5 ng/ml IL-12 (PromoCell) for 3 days at 37° C. Half of the medium was then exchanged by fresh TCM supplemented with 80 U/ml IL-2 and incubating was continued for 4 days at 37° C. This stimulation cycle was performed for a total of three times. For the pMHC multimer readout using 8 different pMHC molecules per condition, a two-dimensional combinatorial coding approach was used as previously described (Andersen et al., 2012) with minor modifications encompassing coupling to 5 different fluorochromes. […]

HLA-A*02 = HLA-A*02 (Homo sapiens, UniProt P04439, D140Y/D185E/D98H/E176V/E277Q/G131W/G231S/I119V/I121R/I166T/I218V/L300P/N151K/N90K/P208A/P217A/Q86G/Q94H/R138H/R169H); assay: MHC binding assay: UV-ligand exchange and beta2m ELISA, peptide exchange yield (Table 20); conditions: binding to HLA-A*02; UV-ligand exchange, beta2m ELISA
Source text: Candidate peptides for T cell based therapies according to the present invention were further tested for their MHC binding capacity (affinity). The individual peptide-MHC complexes were produced by UV-ligand exchange, where a UV-sensitive peptide is cleaved upon UV-irradiation, and exchanged with the peptide of interest as analyzed. Only peptide candidates that can effectively bind and stabilize the peptide-receptive MHC molecules prevent dissociation of the MHC complexes. To determine the yield of the exchange reaction, an ELISA was performed based on the detection of the light chain (β2m) of stabilized MHC complexes. The assay was performed as generally described in Rodenko et al. (Rodenko et al., 2006).
96 well MAXISorp plates (NUNC) were coated over night with 2 ug/ml streptavidin in PBS at room temperature, washed 4× and blocked for1h at 37° C. in 2% BSA containing blocking buffer. Refolded HLA-A*02:01/MLA-001 monomers served as standards, covering the range of 15-500 ng/ml. Peptide-MHC monomers of the UV-exchange reaction were diluted 100 fold in blocking buffer. Samples were incubated for 1h at 37° C., washed four times, incubated with 2 ug/ml HRP conjugated anti-β2m for 1h at 37′C, washed again and detected with TMB solution that is stopped with […]. Absorption was measured at 450 nm. Candidate peptides that show a high exchange yield (preferably higher than 50%, most preferred higher than 75%) are generally preferred for a generation and production of antibodies or fragments thereof, and/or T cell receptors or fragments thereof, as they show sufficient avidity to the MHC molecules and prevent dissociation of the MHC complexes.
Table 20: MHC class I binding scores. Binding of HLA-class I restricted peptides to HLA-A*02 was ranged by peptide exchange yield: <20%=+; 20%-49%=++; 50%-75%=+++; >=75%=++++

Peptide exchange (MHC class I binding score, peptide exchange yield) (HLA-A*02)	Substance	Wells positive [%] (in vitro immunogenicity) [1]
++++ (>=75% = ++++)	14 (ILAKDLFEI; listed as Homo sapiens) [compound 14]	++ (20%-49%=++)
++++ (>=75% = ++++)	92 (GLLFSLRSV; listed as Homo sapiens) [compound 92]	++ (20%-49%=++)
++++ (>=75% = ++++)	1 (LLYPEPWSV; listed as Homo sapiens) [compound 1]	++ (20%-49%=++)
++++ (>=75% = ++++)	12 (GLLPLLHRA; listed as Homo sapiens) [compound 12]	++++ (>=70%=++++)
++++ (>=75% = ++++)	4 (KLMPGTYTL; listed as Homo sapiens) [compound 4]	+ (<20%=+)
++++ (>=75% = ++++)	248 (YLDRFLAGV; listed as Homo sapiens) [compound 248]	++ (20%-49%=++)
++++ (>=75% = ++++)	229 (AILAHLNTV; listed as Homo sapiens) [compound 229]	++ (20%-49%=++)
++++ (>=75% = ++++)	249 (GLCERLVSL; listed as Homo sapiens) [compound 249]	+ (<20%=+)

— patent US11235041B2, “Peptides and combination of peptides for use in immunotherapy against various cancers” (Immatics Biotechnologies GmbH, priority 2015, dated 2022)
